Converted amounts (≈) assume the structure as drawn.
Settings: buffer; pH 7.4; 200.0 µM

Row | solubility kinetic | Compound
1 | 14.6 µg/mL (≈ 40.4 µM) | CC(=O)Nc1ccc(S(=O)(=O)Nc2ccc3nc(C)sc3c2)cc1
2 | > 46.8 µg/mL | CCOC(=O)NN1C(=O)c2ccccc2NC1c1ccccn1 (stereo unspecified)
3 | 25.2 µg/mL (≈ 144 µM) | Cn1ccc(=S)c2ccccc21
4 | 9.8 µg/mL (≈ 33.9 µM) | CCN1C(=O)CSC1=Nc1ccc(Cl)c(Cl)c1
5 | 23.5 µg/mL (≈ 62.5 µM) | O=C(CCCN1CCC(O)(c2ccc(Cl)cc2)CC1)c1ccc(F)cc1
6 | > 49.1 µg/mL | Cc1ccc(OCC(=O)NCCNC(=O)c2ccncc2)cc1C
7 | > 46.3 µg/mL | CN1CCN(/N=C/c2ccc(N(C)c3ccccc3)cc2)CC1
8 | > 52.1 µg/mL | O=C(COC(=O)COc1ccccc1F)Nc1ccc2c(c1)OCO2
9 | > 46.4 µg/mL | Cc1c(C)[n+](=O)c(-c2ccc(Br)cc2)c(C)n1[O-]
10 | 34.6 µg/mL (≈ 129 µM) | N/C(=N\OC(=O)/C=C/c1ccccc1)c1ccncc1
11 | 37.5 µg/mL (≈ 136 µM) | COc1ccccc1CCNC(=O)Cc1cccs1
12 | > 48.2 µg/mL | CCOCCn1c(N2CCCC2)nc2c1c(=O)n(C)c(=O)n2C
13 | 10.3 µg/mL (≈ 28.5 µM) | O=C1CN(C(=O)COc2ccc(Br)cc2)c2ccccc2N1
14 | 34.5 µg/mL (≈ 126 µM) | COCCNC(=S)c1ccc(Br)cc1
15 | > 46.5 µg/mL | CN(C)c1nc2c(N)ncnc2n1[C@H]1O[C@@H](CO)[C@H](O)[C@@H]1O
16 | 4.1 µg/mL (≈ 16.2 µM) | Cc1ccc(-c2c(C#N)c(N)nc3c2CCCC3)o1
17 | 13 µg/mL (≈ 39.7 µM) | CCCc1nc2ccc(N)cc2c(=O)n1Cc1ccccc1Cl
18 | > 40.4 µg/mL | Cc1ccc(C(=O)O/N=C(\N)c2ccccn2)c(C)c1
19 | > 40.4 µg/mL | CN(C)/C=C/C(=O)c1ccc(Oc2ncccn2)cc1
20 | 5 µg/mL (≈ 16.9 µM) | Cn1cccc1C(=O)C(=O)Nc1ccccc1C(F)(F)F
21 | > 41.1 µg/mL | CC(=O)COC(=O)C1=NN(c2ccccc2)C(=O)CC1

Row | solubility kinetic | Compound
22 | > 46.6 µg/mL | O=C(N/N=C/c1ccc(N2CCOCC2)cc1)c1ccncc1
23 | 2.7 µg/mL (≈ 8.05 µM) | O=c1c(Cc2ccccc2)c(O)ccn1Cc1ccc2c(c1)OCO2
24 | 2.2 µg/mL (≈ 7.82 µM) | COc1cccc(CC(=O)Nc2nc3ccccc3[nH]2)c1
25 | > 51.8 µg/mL | O=C(NCC(=O)N1CCN(c2ccccc2O)CC1)c1cccs1
26 | > 47.5 µg/mL | NC(=O)c1cc(S(=O)(=O)Nc2cccc(Cl)c2)cs1
27 | 15.4 µg/mL (≈ 49.7 µM) | Cc1cc(OCC(=O)N(C)C2CCCCC2)cc(C)c1Cl
28 | 4.5 µg/mL (≈ 16.2 µM) | Cc1ccc(OCC(=O)Nc2ccon2)c([N+](=O)[O-])c1
29 | > 41.9 µg/mL | O=C1CC(C(=O)NC2CCCCC2)C2(CCCCC2)O1 (stereo unspecified)
30 | > 40.1 µg/mL | CSCCC(NC(=O)c1cccc(C)c1)C(=O)O (stereo unspecified)
31 | > 46.2 µg/mL | CCOC(=O)Cc1csc(NC(=O)c2ccc(F)cc2)n1
32 | < 0.3 µg/mL | CCn1c(C)cc(O)c(C(=O)Nc2cccc(Cl)c2)c1=O
33 | > 44.7 µg/mL | O=C(OCC(=O)N1CCCCC1)c1ccc2ccccc2n1
34 | > 47.9 µg/mL | CC(/C=C1\SC(=S)N(CC(=O)O)C1=O)=C\c1ccccc1
35 | > 51.2 µg/mL | NS(=O)(=O)c1ccc(CCNC(=S)NC2CCCCC2)cc1
36 | 48.7 µg/mL (≈ 140 µM) | COc1ccc(CCNC(=O)c2cc(=O)n(C)c(=O)n2C)cc1OC
37 | 2.5 µg/mL (≈ 7.38 µM) | O=C(NCCSCc1c(F)cccc1Cl)Nc1ccccc1
38 | > 55.2 µg/mL | OC1(c2ccccc2)Cc2cccc[n+]2C1c1ccccc1.[Br-] (stereo unspecified)
39 | > 48 µg/mL | COc1cc(C2NC(=O)NC3=C2C(=O)OC3)cc(OC)c1OC (stereo unspecified)
40 | > 49.6 µg/mL | CS(=O)(=O)c1ccc(C(=O)N2CC(=O)Nc3ccccc32)cc1
41 | 43.7 µg/mL (≈ 142 µM) | O=C(CC(=O)c1ccccc1)Nc1ccccc1C(F)(F)F
42 | > 57.5 µg/mL | CCN(CC)S(=O)(=O)c1ccc2oc(SCC(=O)NC3CC3)nc2c1

Row | solubility kinetic | Compound
43 | 49.4 µg/mL (≈ 146 µM) | O=C(NCC(=O)N1CCN(c2ccccc2O)CC1)c1ccccc1
44 | > 42 µg/mL | O=C(O)CCn1c(Cc2ccccc2)nc2ccccc21
45 | 33.4 µg/mL (≈ 124 µM) | Cc1ccc(CC(=O)NCC(O)c2ccccc2)cc1 (stereo unspecified)
46 | 3 µg/mL (≈ 8.84 µM) | Cc1ccccc1NC(=O)CSc1nc2ccccc2c(=O)n1C
47 | > 46.8 µg/mL | COc1ccc(C(=O)NCC(=O)N/N=C/c2cccnc2)cc1
48 | > 46.3 µg/mL | O=C(NCc1ccc2c(c1)OCO2)C(=S)N1CCOCC1
49 | 3.4 µg/mL (≈ 9.81 µM) | CCNc1nc(SC(C)C(=O)Nc2ccccc2)nc(N(C)C)n1 (stereo unspecified)
50 | 10.7 µg/mL (≈ 42.2 µM) | CC(C)C(=O)Nc1ccccc1Cc1ccccc1
51 | 36.3 µg/mL (≈ 128 µM) | O=C(c1ccc(F)cc1)N1CCCC(c2ccccc2)C1 (stereo unspecified)
52 | 44.1 µg/mL (≈ 126 µM) | COc1cc(CNCCNC(=O)c2cccs2)cc(OC)c1OC
53 | > 48.7 µg/mL | Cc1ccc(NC(=O)/C=C/C(=O)O)c(NC(=O)c2ccccc2)c1
54 | > 32.6 µg/mL | O=C(O)/C=C/C(=O)N1CCc2ccccc21
55 | 33.8 µg/mL (≈ 127 µM) | O=C(CN1C(=O)C(=O)c2ccccc21)c1ccccc1
56 | 11.6 µg/mL (≈ 32.1 µM) | O=C(CCNc1ccc(Cc2ccncc2)cc1)c1ccc([N+](=O)[O-])cc1
57 | < 0.2 µg/mL | CCOc1ccccc1NC(=O)Nc1ccccn1
58 | > 50 µg/mL | Cc1cc(=O)[nH]c(SCC(=O)Nc2ccc3c(c2)OCCO3)n1
59 | 27.4 µg/mL (≈ 76.2 µM) | COC(=O)c1ccc(/C=C/C(=O)OCC(=O)NCc2cccs2)cc1
60 | 35.3 µg/mL (≈ 143 µM) | Cc1cc(C)cc(NC(=O)CCN2CCCC2)c1
61 | > 53.1 µg/mL | CN(CC(=O)NCc1ccncc1)S(=O)(=O)c1ccc(Cl)cc1
62 | > 38.6 µg/mL | Cc1ccc(C(=O)NCCCn2ccnc2)cc1C
63 | < 0.4 µg/mL | COc1cc(NC(=O)c2ccccc2)ccc1NC(=O)Cc1ccccc1

Row | solubility kinetic | Compound
64 | 14.8 µg/mL (≈ 34.6 µM) | CCCn1c(N)c(N2CCCCC2)c(=O)n(CC(=O)Nc2ccc(C(C)=O)cc2)c1=O
65 | 3.5 µg/mL (≈ 14 µM) | Oc1ccc(CNc2ccccc2)c2cccnc12
66 | > 40.3 µg/mL | CC1CN(C(=S)Nc2ccccc2F)CC(C)O1 (stereo unspecified)
67 | 40.6 µg/mL (≈ 114 µM) | CCOc1ccccc1C(=O)NCCNC(=O)c1ccccc1OCC
68 | 55 µg/mL | Cc1cc(Nc2ccc(N3CCOCC3)cc2)c2cccc(C)c2n1.Cl
69 | 45.5 µg/mL (≈ 142 µM) | O=C(CC1OCC2CCCN2C1=O)Nc1ccc([N+](=O)[O-])cc1 (stereo unspecified)
70 | > 49.6 µg/mL | Cc1cc(=O)[nH]c2ccc(S(=O)(=O)Nc3ccc(O)cc3)cc12
71 | > 64.6 µg/mL | COc1ccc(N2CCN(C(CNC(=O)C(=O)NCCCO)c3ccco3)CC2)cc1 (stereo unspecified)
72 | < 0.3 µg/mL | O=C(NC(=S)NC1CCCCC1)c1ccc(Cl)cc1
73 | 27 µg/mL (≈ 80.7 µM) | Cc1ccc(N2C(=O)C(CN3CCCCC3)C2c2ccccc2)cc1 (stereo unspecified)
74 | > 47.2 µg/mL | CS(=O)(=O)N(CC(=O)N1CCCC1)Cc1ccc(F)cc1
75 | < 0.4 µg/mL | CCOC(=O)c1sc(=NC(=O)CCSc2ccccc2)n(C)c1C
76 | 18.2 µg/mL (≈ 79.2 µM) | Clc1ccccc1N=C1SCCS1
77 | < 0.6 µg/mL | COC(=O)c1sccc1NC(=O)c1ccc(Cl)cc1
78 | 26.5 µg/mL (≈ 92.2 µM) | Cc1cc(C)c2c(CN3CCOCC3)cc(=O)oc2c1C
79 | 8.7 µg/mL (≈ 36.4 µM) | O=C(C#Cc1ccccc1)Nc1cccc(F)c1
80 | > 53.6 µg/mL | O=C(CSc1nnc2ccccn12)NC(=O)c1cccc([N+](=O)[O-])c1
81 | 2.6 µg/mL (≈ 8.22 µM) | CC(C)OCc1c(C(=O)Nc2nccs2)oc2ccccc12
82 | 39.2 µg/mL (≈ 139 µM) | O=C(COC(=O)c1ccc([N+](=O)[O-])o1)NC1CCCC1
83 | 44.9 µg/mL (≈ 149 µM) | O=C(Nc1ccccc1N1CCCC1)c1ccc([N+](=O)[O-])o1
84 | > 49 µg/mL | COC(=O)c1c(NC(C)=O)sc(C(=O)N2CCOCC2)c1C

Row | Compound | solubility kinetic
85 | CN(C)C(=O)Oc1ccc(Br)c2ccccc12 | 35 µg/mL (≈ 119 µM)
86 | O=[N+]([O-])c1ccc(CN2CC=C(c3ccccc3)CC2)cc1 | 6.8 µg/mL (≈ 23.1 µM)
